Legend:
[1] = tested on: human estrogen receptor (hER); conditions: cited from earlier work
[2] = Plasma and urinary profiles of isoflavones after acute and chronic administration of isoflavone tablets (Promensil composition), HPLC
Protocol: The plasma and urinary profiles of isoflavones after acute and chronic administration of […] of isoflavones (genistein […], daidzein 0.5 mg, biochanin […], and formononetin 14 mg) in fourteen subjects was analysed. The composition corresponds to the Promensil product (Registered Trade Mark, Novogen Research Pty Ltd, Australia). Venous plasma and urine were collected at intervals for 24 h after which subjects commenced taking two tablets each day for two weeks and repeated plasma samples and urine were collected for a 48 h period after the last does. Plasma and urine isoflavones were assayed by HPLC.

cancer = conditions: cited from earlier work

Structure (SMILES)	binding affinity for the hER compared to daidzein [1]	estrogenic potency relative to daidzein [1]	detectability in plasma and urine ([2]; in vivo)	plasma concentrations relative to the methylated precursors ([2]; in vivo)	anti-cancer actions (cancer)	plasma concentrations relative to the methylated precursors ([2]; after acute dosing of the isoflavone tablets)
COc1ccc(-c2coc3cc(O)cc(O)c3c2=O)cc1 [biochanin]	lower binding affinity	about the same estrogenic potency as daidzein	remained detectable in both plasma and urine at all times			
O=c1c(-c2ccc(O)cc2)coc2cc(O)ccc12 [daidzein]				much higher concentrations than their methylated precursors	virtually none	
COc1ccc(-c2coc3cc(O)ccc3c2=O)cc1 [formononetin]			remained detectable in both plasma and urine at all times			
O=c1c(-c2ccc(O)cc2)coc2cc(O)cc(O)c12 [genistein]		approximately ten fold more estrogenic than daidzein			potent anti-cancer actions	much higher concentrations than their methylated precursors

— patent US6599536B1, “Therapy of estrogen-associated disorders” (Novogen Research Pty Ltd, priority 1998, dated 2003)
